In ChEMBL document CHEMBL2157998, “Synthesis and biological evaluation of new phenothiazine derivatives bearing a pyrazole unit as protein farnesyltransferase inhibitors” (Bioorg Med Chem Lett, 2012):
The source made the active and inactive calls. The calls are words filed in the database; no cut-off is given here.

Columns and labels:
[1] = target: T1, Protein farnesyltransferase (Homo sapiens, UniProt P49354+P49356); assay: Inhibition of recombinant human FTase using dansyl-GCVLS as substrate at 100 uM after 15 mins by fluorimetric analysis; assay type: protein-complex assay
[2] = system: CCRF-CEM; assay: Growth inhibition of human CCRF-CEM cells at 10 uM after 48 hrs by single dose SRB assay; assay type: functional; conditions: for inhibition of growth at 10 µM: read-out: GI
[3] = system: HL-60(TB); assay: Growth inhibition of human HL-60(TB) cells at 10 uM after 48 hrs by single dose SRB assay; assay type: functional; conditions: for inhibition of growth at 10 µM: HL-60, 48 h, read-out: GI
[4] = system: MOLT-4; assay: Growth inhibition of human MOLT4 cells at 10 uM after 48 hrs by single dose SRB assay; assay type: functional; conditions: for inhibition of growth at 10 µM: MOLT-4, 48 h, read-out: GI
[5] = system: RPMI-8226; assay: Growth inhibition of human RPMI8226 cells at 10 uM after 48 hrs by single dose SRB assay; assay type: functional
[6] = system: SF-295; assay: Growth inhibition of human SF295 cells at 10 uM after 48 hrs by single dose SRB assay; assay type: functional; conditions: for inhibition of growth at 10 µM: SF-295, 48 h, read-out: GI
[7] = system: SNB-19; assay: Growth inhibition of human SNB19 cells at 10 uM after 48 hrs by single dose SRB assay; assay type: functional
[8] = system: U-251; assay: Growth inhibition of human U251 cells at 10 uM after 48 hrs by single dose SRB assay; assay type: functional; conditions: for inhibition of growth at 10 µM: U-251, 48 h, read-out: GI
[9] = system: HCT166; assay: (§1) Growth inhibition of human […] cells at 10 uM after 48 hrs by single dose SRB assay; assay type: functional
[10] = system: HCT-15; assay: Growth inhibition of human HCT15 cells at 10 uM after 48 hrs by single dose SRB assay; assay type: functional; conditions: for inhibition of growth at 10 µM: HCT-15, 48 h, read-out: GI
[11] = system: HT-29; assay: Growth inhibition of human HT-29 cells at 10 uM after 48 hrs by single dose SRB assay; assay type: functional; conditions: for inhibition of growth at 10 µM: HT-29, 48 h, read-out: GI
[12] = system: SW-620; assay: Growth inhibition of human SW620 cells at 10 uM after 48 hrs by single dose SRB assay; assay type: functional
[13] = system: EKVX; assay: Growth inhibition of human EKVX cells at 10 uM after 48 hrs by single dose SRB assay; assay type: functional; conditions: for inhibition of growth at 10 µM: read-out: GI
[14] = system: NCI-H226; assay: Growth inhibition of human NCI-H226 cells at 10 uM after 48 hrs by single dose SRB assay; assay type: functional; conditions: for inhibition of growth at 10 µM: NCI-H226, 48 h, read-out: GI
[15] = system: HOP-92; assay: Growth inhibition of human HOP92 cells at 10 uM after 48 hrs by single dose SRB assay; assay type: functional; conditions: for inhibition of growth at 10 µM: HOP-92, 48 h, read-out: GI
[16] = system: NCI-H522; assay: Growth inhibition of human NCI-H522 cells at 10 uM after 48 hrs by single dose SRB assay; assay type: functional; conditions: for inhibition of growth at 10 µM: NCI-H522, 48 h, read-out: GI
[17] = system: LOX IMVI; assay: Growth inhibition of human LOXIMVI cells at 10 uM after 48 hrs by single dose SRB assay; assay type: functional
[18] = system: SK-MEL-5; assay: Growth inhibition of human SK-MEL-5 cells at 10 uM after 48 hrs by single dose SRB assay; assay type: functional; conditions: for inhibition of growth at 10 µM: SK-MEL-5, 48 h, read-out: GI
[19] = system: UACC-62; assay: Growth inhibition of human UACC62 cells at 10 uM after 48 hrs by single dose SRB assay; assay type: functional; conditions: for inhibition of growth at 10 µM: UACC-62, 48 h, read-out: GI
[20] = system: ACHN; assay: Growth inhibition of human ACHN cells at 10 uM after 48 hrs by single dose SRB assay; assay type: functional
[21] = system: SN12C; assay: Growth inhibition of human SN12C cells at 10 uM after 48 hrs by single dose SRB assay; assay type: functional; conditions: for inhibition of growth at 10 µM: read-out: GI
[22] = system: A498; assay: Growth inhibition of human A498 cells at 10 uM after 48 hrs by single dose SRB assay; assay type: functional; conditions: A498, 48 h, read-out: GI
[23] = system: CAKI-1; assay: Growth inhibition of human Caki1 cells at 10 uM after 48 hrs by single dose SRB assay; assay type: functional; conditions: for inhibition of growth at 10 µM: CAKI-1, 48 h, read-out: GI
[24] = system: UO-31; assay: Growth inhibition of human UO31 cells at 10 uM after 48 hrs by single dose SRB assay; assay type: functional; conditions: for inhibition of growth at 10 µM: UO-31, 48 h, read-out: GI
[25] = system: OVCAR-3; assay: Growth inhibition of human OVCAR3 cells at 10 uM after 48 hrs by single dose SRB assay; assay type: functional
[26] = system: OVCAR-8; assay: Growth inhibition of human OVCAR8 cells at 10 uM after 48 hrs by single dose SRB assay; assay type: functional; conditions: for inhibition of growth at 10 µM: OVCAR-8, 48 h, read-out: GI
[27] = system: NCI/ADR-RES; assay: Growth inhibition of human NCI/ADR-RES cells at 10 uM after 48 hrs by single dose SRB assay; assay type: functional; conditions: for inhibition of growth at 10 µM: read-out: GI
[28] = system: PC-3; assay: Growth inhibition of human PC3 cells at 10 uM after 48 hrs by single dose SRB assay; assay type: functional; conditions: PC-3, 48 h, read-out: GI
[29] = system: MDA-MB-231; assay: Growth inhibition of human MDA-MB-231 cells at 10 uM after 48 hrs by single dose SRB assay; assay type: functional
[30] = system: MDA-MB-468; assay: Growth inhibition of human MDA-MB-468 cells at 10 uM after 48 hrs by single dose SRB assay; assay type: functional; conditions: for inhibition of growth at 10 µM: MDA-MB-468, 48 h, read-out: GI
[31] = as §1; assay type: functional; conditions: read-out: GI
[32] = target: T1, Protein farnesyltransferase; assay: Inhibition of recombinant human FTase using dansyl-GCVLS as substrate after 15 mins by fluorimetric analysis; assay type: protein-complex assay

SMILES	inhibition [1]	inhibition of growth at 10 µM [3]	inhibition of growth at 10 µM [4]	growth inhibition (GI) [5]	growth inhibition (GI) [7]	growth inhibition (GI) [12]	inhibition of growth at 10 µM [13]	inhibition of growth at 10 µM [14]	inhibition of growth at 10 µM [16]	growth inhibition (GI) [17]	inhibition of growth at 10 µM [19]	growth inhibition (GI) [20]	inhibition of growth at 10 µM [22]	inhibition of growth at 10 µM [23]	inhibition of growth at 10 µM [24]	growth inhibition (GI) [25]	inhibition of growth at 10 µM [28]	growth inhibition (GI) [29]	inhibition of growth at 10 µM [30]	growth inhibition (GI) [11]	also measured
CCOC(=O)c1cnn(CC(=O)N2c3ccccc3Sc3ccccc32)c1N	24.8%	83.2%	7.6%	inactive	inactive	inactive	5.3%	8.1%	31.9%	inactive	6.3%	inactive	11.8%	16%	13.3%	inactive	21.3%	inactive	15.3%		growth inhibition (GI) [2]: inactive; inhibition of growth at 10 µM [6]: 6.7%; growth inhibition (GI) [8]: inactive; growth inhibition (GI) [9]: inactive; inhibition of growth at 10 µM [10]: 25.4%; inhibition of growth at 10 µM [11]: 13.2%; growth inhibition (GI) [15]: inactive; inhibition of growth at 10 µM [18]: 6.9%; growth inhibition (GI) [21]: inactive; growth inhibition (GI) [26]: inactive; growth inhibition (GI) [27]: inactive
Cc1c2c(nn1CC(=O)N1c3ccccc3Sc3ccccc31)CCCC2	0%		20.1%		inactive	inactive			15.2%	inactive	13.2%	inactive		8.1%	10%	inactive		inactive		inactive	inhibition of growth at 10 µM [2]: 6.5%; growth inhibition (GI) [3]: inactive; inhibition of growth at 10 µM ([5]; RPMI-8226, 48 h, read-out: GI): 16.2%; growth inhibition (GI) [6]: inactive; inhibition of growth at 10 µM [8]: 10.2%; inhibition of growth at 10 µM [31]: 8.4%; inhibition of growth at 10 µM [10]: 8%; growth inhibition (GI) [13]: inactive; growth inhibition (GI) [14]: inactive; growth inhibition (GI) [18]: inactive; inhibition of growth at 10 µM [21]: 5.6%; growth inhibition (GI) [26]: inactive; inhibition of growth at 10 µM [27]: 6.2%; growth inhibition (GI) [30]: inactive
Cc1c2c(nn1C(=O)CCN1c3ccccc3Sc3ccccc31)CCCC2	0%	19.6%		inactive	inactive	inactive	8.3%	12.8%	9.1%	inactive	7.1%	inactive				inactive	13%	inactive	11.2%	inactive	inhibition of growth at 10 µM [2]: 12.8%; growth inhibition (GI) [4]: inactive; growth inhibition (GI) [6]: inactive; growth inhibition (GI) [8]: inactive; inhibition of growth at 10 µM [31]: 12.4%; growth inhibition (GI) [10]: inactive; inhibition of growth at 10 µM [15]: 31.6%; growth inhibition (GI) [18]: inactive; growth inhibition (GI) [21]: inactive; growth inhibition (GI) [23]: inactive; growth inhibition (GI) [24]: inactive; growth inhibition (GI) [26]: inactive; inhibition of growth at 10 µM [27]: 8.2%
C/C(=N\NC(=O)CCN1c2ccccc2Sc2ccccc21)C1=C(O)c2ccccc2C1=O	95.5%																				IC50 [32]: 3.73 µM
Cc1cc(-c2ccccc2)n(C(=O)CN2c3ccccc3Sc3ccccc32)n1	0%	31.5%	9.6%	inactive	inactive	inactive	5%	7.2%		inactive		inactive	17.3%	16.2%	9%	inactive	13%	inactive		inactive	growth inhibition (GI) [2]: inactive; growth inhibition (GI) [6]: inactive; inhibition of growth at 10 µM [8]: 9.2%; growth inhibition (GI) [9]: inactive; growth inhibition (GI) [10]: inactive; inhibition of growth at 10 µM [15]: 14%; growth inhibition (GI) [16]: inactive; growth inhibition (GI) [18]: inactive; growth inhibition (GI) [19]: inactive; inhibition of growth at 10 µM [21]: 7.2%; inhibition of growth at 10 µM [26]: 6.3%; growth inhibition (GI) [27]: inactive; growth inhibition (GI) [30]: inactive
Cc1c2c(nn1CC(=O)N1c3ccccc3Sc3ccccc31)-c1ccccc1C2=O	67.7%		25.4%	inactive			39.9%	25.3%	9.6%		31.2%		19.4%	38.3%	29.5%		31%		37.6%		IC50 [32]: 3.35 µM; inhibition of growth at 10 µM [2]: 12.1%; growth inhibition (GI) [3]: inactive; inhibition of growth at 10 µM [6]: 35.8%; inhibition of growth at 10 µM ([7]; SNB-19, 48 h, read-out: GI): 35.7%; inhibition of growth at 10 µM [8]: 24.8%; inhibition of growth at 10 µM [31]: 55.7%; inhibition of growth at 10 µM [10]: 23%; inhibition of growth at 10 µM [11]: 17.7%; inhibition of growth at 10 µM ([12]; SW-620, 48 h, read-out: GI): 23.8%; growth inhibition (GI) [15]: inactive; inhibition of growth at 10 µM ([17]; read-out: GI): 54.8%; inhibition of growth at 10 µM [18]: 51.4%; inhibition of growth at 10 µM ([20]; read-out: GI): 29.7%; inhibition of growth at 10 µM [21]: 34.8%; inhibition of growth at 10 µM ([25]; OVCAR-3, 48 h, read-out: GI): 29.7%; inhibition of growth at 10 µM [26]: 28.2%; inhibition of growth at 10 µM [27]: 33.5%; inhibition of growth at 10 µM ([29]; MDA-MB-231, 48 h, read-out: GI): 27.8%
N#Cc1cnn(CC(=O)N2c3ccccc3Sc3ccccc32)c1N	94.9%	46.2%		inactive	inactive	inactive				inactive		inactive	14%		6.4%	inactive	9.9%	inactive	11.7%	inactive	IC50 [32]: 17.2 µM; growth inhibition (GI) [2]: inactive; inhibition of growth at 10 µM [6]: 13.1%; growth inhibition (GI) [8]: inactive; growth inhibition (GI) [9]: inactive; growth inhibition (GI) [10]: inactive; growth inhibition (GI) [13]: inactive; growth inhibition (GI) [14]: inactive; inhibition of growth at 10 µM [15]: 12.5%; growth inhibition (GI) [16]: inactive; growth inhibition (GI) [18]: inactive; growth inhibition (GI) [19]: inactive; growth inhibition (GI) [21]: inactive; growth inhibition (GI) [23]: inactive; inhibition of growth at 10 µM [26]: 5.5%; growth inhibition (GI) [27]: inactive
